How the values were obtained:
[1] = tested on: Caulobacter DNA replication; experiment: Analysis of DNA replication (32P-labeled dGTP incorporation, DNA-content FACS); assay type: cell-based, Caulobacter crescentus
From the text: We first examined the incorporation of radiolabeled dGTP into DNA, which linearly correlates with the rate of DNA replication. […] To assess the effect of A22 on DNA replication during the cell cycle, the radiolabeled nucleotide incorporation assay was repeated using synchronized cultures at different points in the cell cycle. Untreated cells display a dramatic rise in radioactivity levels characteristic of DNA replication initiation at the swarmer-to-stalked cell transition. This rise in radioactivity levels was also observed in A22-treated cells (FIG. 6A).
Finally, we examined the DNA content of A22-treated cells by FACS.
Analysis of DNA Replication. DNA replication was assessed by incorporation of 32P-labeled dGTP) or chromomycin-stained DNA-content FACS analysis as described previously.

E. coli JA221, JST975 = experiment: Cell shapes of A22-resistant mutant JA221 and parent JST975; assay type: cell-based; settings: 10 μg/ml A22
Description: FIG. 9. Effects of A22 and mecillinam on cell shapes of the A22-resistant mutant JA221. Exponentially growing cells of the A22-resistant mutant strain JA221 and the parent strain JST975 were treated with 1 μg/ml mecillinam or 10 μg/ml A22 for 2 h at 37° C. Differential interference contrast microphotographs are shown.
After prolonged (9 days) incubation of the JST975 assay plates, several isolated colonies that grew up within the clear growth inhibitory zones were purified on L plates and their A22-sensitivity was examined.

MreB = target: T1, MreB (Caulobacter vibrioides, UniProt A0A0H3C7V4); experiment: Chromatin immunoprecipitation with anti-MreB; assay type: cell-based, Caulobacter crescentus; settings: in the presence of A22
T1 construct: endogenous in cells; host or cells: Caulobacter crescentus cells (formaldehyde-crosslinked extracts)
T1 sequence (A0A0H3C7V4 whole entry): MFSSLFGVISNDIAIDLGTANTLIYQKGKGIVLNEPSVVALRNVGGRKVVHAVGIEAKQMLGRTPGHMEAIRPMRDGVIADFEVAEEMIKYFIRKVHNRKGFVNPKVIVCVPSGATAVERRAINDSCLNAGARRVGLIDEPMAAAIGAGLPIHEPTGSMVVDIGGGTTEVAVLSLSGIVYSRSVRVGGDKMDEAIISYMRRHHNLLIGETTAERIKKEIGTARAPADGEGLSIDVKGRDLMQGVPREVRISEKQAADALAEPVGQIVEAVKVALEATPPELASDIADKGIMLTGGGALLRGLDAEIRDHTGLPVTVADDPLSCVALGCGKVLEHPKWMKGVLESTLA
From the text: MreB Associates with Origin-Proximal Loci. The specific inhibition of origin movement by A22 raises the possibility that the duplicated origin moves to the opposite pole through a specific physical association with MreB, much as eukaryotic centromeres are segregated by association with microtubules. We sought to detect such an association in vivo by chromatin immunoprecipitation (ChIP). Following previously established protocols, Caulobacter extracts were ChIP'ed with polyclonal antisera raised against purified Caulobacter MreB. PCR was then used to amplify specific segments of the Caulobacter chromosome. […] We detected a faint signal with primers to the dnaA promoter located 6 kb to the right of the origin (FIG. 8), possibly reflecting the fact that dnaA is at the edge of the MreB binding region.
Chromatin Immunoprecipitations. Formaldehyde-crosslinked chromatin immunoprecipitation was performed as described previously. The anti-MreB antibody was raised by cloning the mreB coding sequence into the pET28a vector (Novagen). The resulting His6-tagged MreB was overexpressed in BL21(DE3)/pLysS E. coli and purified using Qiagen Ni2+-NTA agarose as described previously. Two milligrams of purified His6-MreB was used to immunize two rabbits (Josman Laboratories, Napa, Calif.). Oligonucleotide primer sequences for the regions PCR amplified are available upon request.

E. coli MG1655 = experiment: Microscopic observation of cell shape; assay type: cell-based; settings: for Effect on E. coli cell morphology (in words): 3×MIC or 300 μg/ml, 16 hrs
Outline: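 E. coli K-12 MG1655 grown in Lennox broth with 0.1% glucose (pH 7.2), exposed to compound, methanol-fixed 5 min and examined by differential interference contrast microscopy. Anucleate cells scored after DAPI staining (5 μg/ml) using combined fluorescence phase-contrast.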

E. coli JE1011, JST975 = experiment: Paper disk growth inhibitory zone; assay type: cell-based; settings: paper disk φ 8 mm, 200 μg of A22, 24 h, 37° C.
Description: Isolation of A22-resistant mutant Our strategy for identifying the molecular target(s) of A22 involved isolating resistant mutants which grow in the presence of concentrations of A22 that inhibit growth of the parent strain. After 24 h incubation at 37° C., E. coli strains such as JE1011 formed a turbid growth inhibitory zone (φ 12 mm) around a paper disk (φ 8 mm) containing 200 μg of A22. To identify a more suitable parent strain for our selection, we screened for a more drug-sensitive strain that would form clear growth inhibitory zones under similar incubation conditions.
Bacterial strains used E. coli K-12 strains JE1011 (F^− leuB thr trp his thy ara lac xyl mtl rpsL tonA), JST975 (the same as JE1011 but ponB) (Tamaki et al. 1977), W3110 (wild-type), MG1655 (wild-type), DV14 (F^− metB1 panD2 panF1 zhc-12::Tn10) (Vallari & Rock 1985), CAG12149 (F^− zbd-601::Tn10) (Singer et al. 1989), AT1325-678 (F^− lip-9 thi-1 his-4 purB15 proA2 mtl-1 Δmre678) (Wachi et al. 1987) and JM109 [recA1 endA1 gyrA96 thi-1 hsdR17 Δ(lac-proAB) supE44 relA1 F′ (traD36 proAB^+ lacI^q lacZΔM15)] (Yanisch-Perron et al. 1985) were used in this study. Cells were grown in Lennox (L) medium (1% Bactopeptone, 0.5% yeast extracts, 0.5% NaCl, 0.1% glucose, pH 7.2, supplemented with 20 μg/ml thymine). For the growth of AT1325-678, 0.1 μg/ml lipoic acid was supplemented. […]

## N=C(N)SCc1ccc(Cl)c(Cl)c1 [Compound 1, S-(3,4-dichlorobenzyl)isothiourea]
[1]
  Incorporation of radiolabeled dGTP, asynchronous cultures: does not interfere with bulk DNA synthesis
[1]; 10 μg/ml A22 or 5 mg/ml HU
  Incorporation of radiolabeled dGTP, synchronized cultures (replication initiation): slightly delayed replication initiation
[1]; 10 μg/ml, 8 hr
  DNA content by FACS: predominantly contained cells with two chromosomes
E. coli JA221, JST975
  Cell shape of parent strain JST975: formed spherical cells
  Cell shape of resistant mutant JA221: grew as rods
MreB
  Origin coimmunoprecipitation with MreB: significantly reduced, though not abolished
E. coli MG1655; 30° C.
  Effect on E. coli cell morphology (in words): induced a spherical cell shape
E. coli MG1655; 30° C., listed as A22
  Effect on E. coli cell morphology (in words): induced spherical cells
E. coli MG1655; E. coli MG1655 treated at 3×MIC (*), 30° C., 16 h
  Shape: Sphere*
E. coli MG1655; Example 2, methods as in Example 1
  Shape: Sphere
E. coli JE1011, JST975; JE1011
  Growth inhibitory zone (turbid): 12 mm
E. coli JE1011, JST975; JST975 (ponB)
  Growth inhibitory zone (clear): 32 mm

From patent publication US7855228B2, “Antibiotics targeting MreB” (The Board of Trustees of the Leland Stamford Junior …, priority 2005, dated 2010)
